Reference: US10442763B2, “EBNA1 inhibitors and methods using same” (priority 2015, dated 2019)

Target: T1, His-EBNA1 (DNA binding domain of EBNA1, amino acids 459-607) (Epstein-Barr virus, UniProt P03211)
T1 construct: made in house; host or cells: E. coli
Test: Inhibition of 5'-biotin-oPL4624 binding to His-EBNA1 using Alpha Screen technology
Procedure: Inhibition of 5′-Biotin-oPL4624 Binding to his-EBNA1 Using Alpha Screen Technology
Assays were performed using the DNA binding domain of EBNA1 (amino acids 459-607), which was His-tagged (His-EBNA1) and the self-complementary biotinylated (bt) oligonucleotide with the sequence 5′-bt-[…]-ATGCTACCC-3′ (bt-oPL4624; or 5′-bt-SEQ ID NO: 1). The protein was expressed in E. coli and purified according to Barwell, et al., 1995, J Biol Chem. 270:20556-9.). The bt-oPL4624 oligonucleotide was purchased from Integrated DNA Technologies, Inc (IDT). AlphaScreen donor, acceptor beads and white, opaque 384-well assay plates were purchased from PerkinElmer, Inc.
Assays contained 15 nM His-EBNA1, 0.2 nM bt-oPL4624, 5 μg/mL AlphaScreen streptavidin donor beads and nickel chelate acceptor beads, and a series of concentrations of test compound ranging from 3.2 nM to 100 μM in a total volume of 40 μL assay buffer (25 mM Tris, pH 7.2, 160 mM NaCl, 1 mM MgCl2). His-EBNA1 (30 nM) and bt-oPL4624 (0.4 nM) were preincubated with 10 μg/mL nickel chelate AlphaScreen acceptor bead, or 10 μg/mL streptavidin AlphaScreen donor bead, respectively, for 30 minutes at room temperature in assay buffer. Twenty microliters of His-EBNA1/acceptor bead mix and bt-oPL4624/donor bead mix were transferred to assay plates containing 0.4 μL of 1:3 serial dilutions of test compounds previously prepared in DMSO at concentrations ranging from 0.32 μM to 10 mM. Non-specific binding was determined with 5 μg/mL AlphaScreen acceptor bead in the absence of His-EBNA1. After 2 hr incubation at room temperature, the AlphaScreen signal was measured on the Envision plate reader (PerkinElmer, Inc.) at 680 nm excitation and 570 nm emission. Inhibition values at each concentration of test compound were determined by setting 100% equal to raw data values in the absence of EBNA1 and 0% equal to the raw data values in the presence of EBNA1. Nonlinear regression fits of the inhibition values to a one-site dose-response equation were performed using GraphPad Prism.

T1 sequence (P03211 459-607): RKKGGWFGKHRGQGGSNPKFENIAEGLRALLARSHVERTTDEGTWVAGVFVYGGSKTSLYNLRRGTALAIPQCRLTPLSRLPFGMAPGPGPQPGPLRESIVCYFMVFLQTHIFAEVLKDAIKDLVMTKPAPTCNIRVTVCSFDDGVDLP

| SMILES | IC50 [µM] |
| --- | --- |
| O=C(O)c1cccc(C#Cc2ccc3[nH]c(CN4CCS(=O)(=O)CC4)nc(=O)c3c2)c1-c1ccc2cc[nH]c2c1 [Entry 134] | 1 to 10 |
| O=C(O)c1cccc(C#Cc2ccc3nc(C(F)(F)F)[nH]c(=O)c3c2)c1-c1ccc2cc[nH]c2c1 [Entry 135] | 1 to 10 |
| COc1cccc(C)c1NC(=O)c1cccc(C#Cc2cccc(C(=O)O)c2-c2ccc3cc[nH]c3c2)c1 [Entry 137] | 1 to 10 |
| O=C(Nc1ccc(N2CCS(=O)(=O)CC2)cc1)c1cccc(C#Cc2cccc(C(=O)O)c2-c2ccc3cc[nH]c3c2)c1 [Entry 138] | 1 to 10 |
| O=C(O)c1cccc(C#Cc2ccccc2)c1-c1cnc2[nH]ccc2c1 [Entry 139] | < 1 |
| O=C(O)c1cccc(C#Cc2ccc(F)cc2)c1-c1cnc2[nH]ccc2c1 [Entry 140] | 10 to 100 |
| COc1ccc(C#Cc2cccc(C(=O)O)c2-c2cnc3[nH]ccc3c2)cc1 [Entry 141] | 10 to 100 |
| O=C(O)c1cccc(C#Cc2ccc(OC3CCOCC3)cc2)c1-c1cnc2[nH]ccc2c1 [Entry 142] | 10 to 100 |
| O=C(O)c1cccc(C#Cc2ccc(OCCC3CCOCC3)cc2)c1-c1ccc2cc[nH]c2c1 [Entry 143] | 1 to 10 |
| O=C(O)c1cccc(C#Cc2ccc(OC3CCS(=O)(=O)CC3)cc2)c1-c1ccc2cc[nH]c2c1 [Entry 144] | 10 to 100 |
| O=C(O)c1cccc(C#Cc2ccc(CN3CCOCC3)cc2)c1-c1ccc2cc[nH]c2c1 [Entry 145] | 1 to 10 |
| CCN1CCN(Cc2ccc(C#Cc3cccc(C(=O)O)c3-c3ccc4cc[nH]c4c3)cc2)CC1 [Entry 146] | 10 to 100 |
| CN1CCN(Cc2ccc(C#Cc3cccc(C(=O)O)c3-c3ccc4cc[nH]c4c3)cc2)CC1 [Entry 147] | 10 to 100 |
| O=C(O)c1cccc(C#Cc2ccc(CN3CCS(=O)(=O)CC3)cc2)c1-c1ccc2cc[nH]c2c1 [Entry 148] | 1 to 10 |
| CN(C)CCN(C)Cc1ccc(C#Cc2cccc(C(=O)O)c2-c2ccc3cc[nH]c3c2)cc1 [Entry 149] | 10 to 100 |
| O=C(O)c1cccc(C#Cc2ccc(CN3CCC(CCO)CC3)cc2)c1-c1ccc2cc[nH]c2c1 [Entry 150] | 1 to 10 |

| SMILES | IC50 [µM] |
| --- | --- |
| O=C(O)c1cccc(C#Cc2ccc(CN3CCC(CO)CC3)cc2)c1-c1ccc2cc[nH]c2c1 [Entry 151] | 10 to 100 |
| CN1CCCN(Cc2ccc(C#Cc3cccc(C(=O)O)c3-c3ccc4cc[nH]c4c3)cc2)CC1 [Entry 152] | 1 to 10 |
| O=C(O)c1cccc(C#Cc2ccc(CN3CC(O)C3)cc2)c1-c1ccc2cc[nH]c2c1 [Entry 153] | 10 to 100 |
| O=C(O)c1cccc(C#Cc2ccc(CN3CCC(O)CC3)cc2)c1-c1ccc2cc[nH]c2c1 [Entry 154] | 10 to 100 |
| COC1CCN(Cc2ccc(C#Cc3cccc(C(=O)O)c3-c3ccc4cc[nH]c4c3)cc2)CC1 [Entry 155] | 10 to 100 |
| CN(C)Cc1ccc(C#Cc2cccc(C(=O)O)c2-c2ccc3cc[nH]c3c2)cc1 [Entry 156] | 10 to 100 |
| COCCN(C)Cc1ccc(C#Cc2cccc(C(=O)O)c2-c2ccc3cc[nH]c3c2)cc1 [Entry 157] | 10 to 100 |
| O=C(O)c1cccc(C#Cc2ccc(CN3CCC(F)(F)CC3)cc2)c1-c1ccc2cc[nH]c2c1 [Entry 158] | 1 to 10 |
| O=C(O)c1cccc(C#Cc2ccc(CN3CCCC(F)(F)C3)cc2)c1-c1ccc2cc[nH]c2c1 [Entry 159] | 1 to 10 |
| O=C(O)c1cccc(C#Cc2ccc(CN3CCc4ccccc4C3)cc2)c1-c1ccc2cc[nH]c2c1 [Entry 160] | 1 to 10 |
| CS(=O)(=O)N1CCN(Cc2ccc(C#Cc3cccc(C(=O)O)c3-c3ccc4cc[nH]c4c3)cc2)CC1 [Entry 161] | 10 to 100 |
| O=C(O)c1cccc(C#Cc2ccc(CN3CCCC(C(F)(F)F)C3)cc2)c1-c1ccc2cc[nH]c2c1 (stereo not shown) [Entry 162] | 1 to 10 |
| COC1CCN(Cc2ccc(C#Cc3cccc(C(=O)O)c3-c3ccc4cc[nH]c4c3)cc2)C1 (stereo not shown) [Entry 163] | 10 to 100 |
| CC(C)N1CCN(Cc2ccc(C#Cc3cccc(C(=O)O)c3-c3ccc4cc[nH]c4c3)cc2)CC1 [Entry 164] | 10 to 100 |
| O=C(O)c1cccc(C#Cc2ccc(CN3CCN(C4CCCCC4)CC3)cc2)c1-c1ccc2cc[nH]c2c1 [Entry 165] | 10 to 100 |
